Data as given in US10968203B2, “Pyrimidinyl-pyridyloxy-naphthyl compounds and methods of treating IRE1-related diseases and disorders” (Genentech, Inc., priority 2017, dated 2021).

System: XBP1s-luc 293 LUC
Assay: cellular PD assay, XBP1s-LUC reporter (Example 903)
Type: cell-based
Details: Table 1; read-out: XBP1s-luc 293 LUC (IC50)
Summary of the method: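 Cellular IRE1α pathway activity was quantified from the luciferase signal of an XBP1-Luc reporter, where the luciferase fusion is in frame and expressed only from the spliced XBP1 transcript.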

SMILES | IC50
Cc1ccc2c(NS(=O)(=O)Cc3cccc(F)c3F)c(F)ccc2c1Oc1ncccc1-c1ccnc(N[C@H]2CCCNC2)n1 [Example 189, (S)-1-(2,3-Difluorophenyl)-N-(2-fluoro-6-methyl-5-((3-(2-(piperidin-3-ylamino)pyrimidin-4-yl)pyridin-2-yl)oxy)naphthalen-1-yl)methanesulfonamide] | 5.07 nM
Cc1ccc2c(NC(=O)C3CCCCC3)cccc2c1Oc1ncccc1-c1ccnc(N[C@H]2CCCNC2)n1 [Example 190, (S)—N-(6-Methyl-5-((3-(2-(piperidin-3-ylamino)pyrimidin-4-yl)pyridin-2-yl)oxy)naphthalen-1-yl)cyclohexanecarboxamide] | 273 nM
Cc1ccc2c(NC(=O)CC3CC3)cccc2c1Oc1ncccc1-c1ccnc(N[C@H]2CCCNC2)n1 [Example 191, (S)-2-Cyclopropyl-N-(6-methyl-5-((3-(2-(piperidin-3-ylamino)pyrimidin-4-yl)pyridin-2-yl)oxy)naphthalen-1-yl)acetamide] | 234 nM
Cc1nc(Nc2cccc3c(Oc4ncccc4-c4ccnc(N[C@H]5CCCNC5)n4)c(C)ccc23)cs1 [Example 192, (S)-2-Methyl-N-(6-methyl-5-((3-(2-(piperidin-3-ylamino)pyrimidin-4-yl)pyridin-2-yl)oxy)naphthalen-1-yl)thiazol-4-amine] | 444 nM
Cc1ccc2c(NC(=O)Cc3cccc(F)c3)cccc2c1Oc1ncccc1-c1ccnc(N[C@H]2CCCNC2)n1 [Example 193, (S)-2-(3-Fluorophenyl)-N-(6-methyl-5-((3-(2-(piperidin-3-ylamino)pyrimidin-4-yl)pyridin-2-yl)oxy)naphthalen-1-yl)acetamide] | 86 nM
Cc1ccc2c(N3CCCS3(=O)=O)cccc2c1Oc1ncccc1-c1ccnc(N[C@H]2CCCNC2)n1 [Example 194, (S)-2-(6-Methyl-5-((3-(2-(piperidin-3-ylamino)pyrimidin-4-yl)pyridin-2-yl)oxy)naphthalen-1-yl)isothiazolidine 1,1-dioxide] | 313 nM
Cc1ccc2c(NS(=O)(=O)N3CCC3)cccc2c1Oc1ncccc1-c1ccnc(N[C@H]2CCCNC2)n1 [Example 195, (S)—N-(6-Methyl-5-((3-(2-(piperidin-3-ylamino)pyrimidin-4-yl)pyridin-2-yl)oxy)naphthalen-1-yl)azetidine-1-sulfonamide] | 202 nM
CCCCNc1cccc2c(Oc3ncccc3-c3ccnc(N[C@H]4CCCNC4)n3)c(C)ccc12 [Example 197, (S)-4-(2-((5-(Butylamino)-2-methylnaphthalen-1-yl)oxy)pyridin-3-yl)-N-(piperidin-3-yl)pyrimidin-2-amine] | 228 nM
Cc1ccc2c(NC(=O)CC(C)(C)C)cccc2c1Oc1ncccc1-c1ccnc(N[C@H]2CCCNC2)n1 [Example 198, (S)-3,3-Dimethyl-N-(6-methyl-5-((3-(2-(piperidin-3-ylamino)pyrimidin-4-yl)pyridin-2-yl)oxy)naphthalen-1-yl)butanamide] | 161 nM
Cc1ccc2c(NC(=O)Cc3ccc(F)cc3)cccc2c1Oc1ncccc1-c1ccnc(N[C@H]2CCCNC2)n1 [Example 199, (S)-2-(4-Fluorophenyl)-N-(6-methyl-5-((3-(2-(piperidin-3-ylamino)pyrimidin-4-yl)pyridin-2-yl)oxy)naphthalen-1-yl)acetamide] | 155 nM
CC[C@H](C)C(=O)Nc1cccc2c(Oc3ncccc3-c3ccnc(N[C@H]4CCCNC4)n3)c(C)ccc12 [Example 203, (S)-2-methyl-N-(6-methyl-5-((3-(2-(((S)-piperidin-3-yl)amino)pyrimidin-4-yl)pyridin-2-yl)oxy)naphthalen-1-yl)butanamide] | 161 nM
CC[C@@H](C)C(=O)Nc1cccc2c(Oc3ncccc3-c3ccnc(N[C@H]4CCCNC4)n3)c(C)ccc12 [Example 204, (R)-2-methyl-N-(6-methyl-5-((3-(2-(((S)-piperidin-3-yl)amino)pyrimidin-4-yl)pyridin-2-yl)oxy)naphthalen-1-yl)butanamide] | 449 nM
Cc1cnn(-c2cccc3c(Oc4ncccc4-c4ccnc(N[C@H]5CCCNC5)n4)c(C)ccc23)c1 [Example 207, (S)-4-(2-((2-Methyl-5-(4-methyl-1H-pyrazol-1-yl)naphthalen-1-yl)oxy)pyridin-3-yl)-N-(piperidin-3-yl)pyrimidin-2-amine] | 251 nM
Cc1ccc2c(NS(=O)(=O)Cc3ccc(Cl)cc3)c(F)ccc2c1Oc1ncccc1-c1ccnc(N[C@H]2CCCNC2)n1 [Example 209, (S)-1-(4-Chlorophenyl)-N-(2-fluoro-6-methyl-5-((3-(2-(piperidin-3-ylamino)pyrimidin-4-yl)pyridin-2-yl)oxy)naphthalen-1-yl)methanesulfonamide] | 8.04 nM
Cc1ncc(S(=O)(=O)Nc2cccc3c(Oc4ncccc4-c4ccnc(N[C@H]5CCCNC5)n4)c(C)ccc23)s1 [Example 210, (S)-2-Methyl-N-(6-methyl-5-((3-(2-(piperidin-3-ylamino)pyrimidin-4-yl)pyridin-2-yl)oxy)naphthalen-1-yl)thiazole-5-sulfonamide] | 459 nM
Cc1ccc2c(NCc3cscn3)cccc2c1Oc1ncccc1-c1ccnc(N[C@H]2CCCNC2)n1 [Example 211, (S)-4-(2-((2-Methyl-5-((thiazol-4-ylmethyl)amino)naphthalen-1-yl)oxy)pyridin-3-yl)-N-(piperidin-3-yl)pyrimidin-2-amine] | 70 nM
Cc1ccc2c(NS(=O)(=O)Cc3c(F)cccc3F)c(F)ccc2c1Oc1ncccc1-c1ccnc(N[C@H]2CCCNC2)n1 [Example 213, (S)-1-(2,6-Difluorophenyl)-N-(2-fluoro-6-methyl-5-((3-(2-(piperidin-3-ylamino)pyrimidin-4-yl)pyridin-2-yl)oxy)naphthalen-1-yl)methanesulfonamide] | 4.57 nM
Cc1ccc2c(NS(=O)(=O)[C@H](C)c3ccccc3)cccc2c1Oc1ncccc1-c1ccnc(N[C@H]2CCCNC2)n1 [Example 215, (R)—N-(6-methyl-5-((3-(2-((S)-piperidin-3-ylamino)pyrimidin-4-yl)pyridin-2-yl)oxy)naphthalen-1-yl)-1-phenylethanesulfonamide] | 211 nM
Cc1ccc2c(N3CCCC3=O)cccc2c1Oc1ncccc1-c1ccnc(N[C@H]2CCCNC2)n1 [Example 216, (S)-1-(6-Methyl-5-((3-(2-(piperidin-3-ylamino)pyrimidin-4-yl)pyridin-2-yl)oxy)naphthalen-1-yl)pyrrolidin-2-one] | 260 nM
Cc1ccc2c(NC(=O)C3CC(F)(F)C3)cccc2c1Oc1ncccc1-c1ccnc(N[C@H]2CCCNC2)n1 [Example 219, (S)-3,3-Difluoro-N-(6-methyl-5-(3-(2-(piperidin-3-ylamino)pyrimidin-4-yl)pyridin-2-yloxy)naphthalen-1-yl)cyclobutanecarboxamide] | 119 nM
Cc1ccc2c(NC(=O)C3(C(F)(F)F)CC3)cccc2c1Oc1ncccc1-c1ccnc(N[C@H]2CCCNC2)n1 [Example 220, (S)—N-(6-Methyl-5-(3-(2-(piperidin-3-ylamino)pyrimidin-4-yl)pyridin-2-yloxy)naphthalen-1-yl)-1-(trifluoromethyl)cyclopropanecarboxamide] | 309 nM
CCCS(=O)(=O)Nc1c(F)ccc2c(Oc3ncccc3-c3ccnc(N[C@H]4CCCNC4)n3)c(C)ccc12 [Example 221, (S)—N-(2-Fluoro-6-methyl-5-((3-(2-(piperidin-3-ylamino)pyrimidin-4-yl)pyridin-2-yl)oxy)naphthalen-1-yl)propane-1-sulfonamide] | 37 nM
Cc1ccc2c(NC(=O)[C@H]3C[C@H]3F)cccc2c1Oc1ncccc1-c1ccnc(N[C@H]2CCCNC2)n1 [Example 222, (1R,2R)-2-Fluoro-N-[6-methyl-5-[[3-[2-[[(3S)-3-piperidyl]amino]pyrimidin-4-yl]-2-pyridyl]oxy]-1-naphthyl]cyclopropanecarboxamide] | 93 nM
Cc1ccc2c(NCC3CC3)cccc2c1Oc1ncccc1-c1ccnc(N[C@H]2CCCNC2)n1 [Example 223, (S)-4-(2-((5-((Cyclopropylmethyl)amino)-2-methylnaphthalen-1-yl)oxy)pyridin-3-yl)-N-(piperidin-3-yl)pyrimidin-2-amine] | 212 nM
Cc1ccc2c(NCCC3CC3)cccc2c1Oc1ncccc1-c1ccnc(N[C@H]2CCCNC2)n1 [Example 224, (S)-4-(2-((5-((2-Cyclopropylethyl)amino)-2-methylnaphthalen-1-yl)oxy)pyridin-3-yl)-N-(piperidin-3-yl)pyrimidin-2-amine] | 177 nM
Cc1ccc2c(NS(=O)(=O)Cc3ccccn3)cccc2c1Oc1ncccc1-c1ccnc(N[C@@H]2CNC[C@H](F)C2)n1 [Example 225, N-(5-((3-(2-(((3S,5R)-5-Fluoropiperidin-3-yl)amino)pyrimidin-4-yl)pyridin-2-yl)oxy)-6-methylnaphthalen-1-yl)-1-(pyridin-2-yl)methanesulfonamide] | 467 nM
Cc1ccc2c(NC(=O)[C@@H]3C[C@H]3C)cccc2c1Oc1ncccc1-c1ccnc(N[C@H]2CCCNC2)n1 [Example 232, (1R,2R)-2-Methyl-N-(6-methyl-5-((3-(2-(((S)-piperidin-3-yl)amino)pyrimidin-4-yl)pyridin-2-yl)oxy)naphthalen-1-yl)cyclopropane-1-carboxamide] | 136 nM
Cc1ccc2c(NC(=O)[C@H]3C[C@@H]3C)cccc2c1Oc1ncccc1-c1ccnc(N[C@H]2CCCNC2)n1 [Example 234, (1S,2S)-2-Methyl-N-(6-methyl-5-((3-(2-(((S)-piperidin-3-yl)amino)pyrimidin-4-yl)pyridin-2-yl)oxy)naphthalen-1-yl)cyclopropane-1-carboxamide] | 111 nM
Cc1ccc2c(NC(=O)[C@H]3C[C@@H]3F)cccc2c1Oc1ncccc1-c1ccnc(N[C@H]2CCCNC2)n1 [Example 235, (1R,2S)-2-Fluoro-N-(6-methyl-5-((3-(2-(((S)-piperidin-3-yl)amino)pyrimidin-4-yl)pyridin-2-yl)oxy)naphthalen-1-yl)cyclopropane-1-carboxamide] | 145 nM
Cc1ccc2c(NC(=O)[C@@H]3C[C@H]3F)cccc2c1Oc1ncccc1-c1ccnc(N[C@H]2CCCNC2)n1 [Example 236, (1S,2R)-2-Fluoro-N-(6-methyl-5-((3-(2-(((S)-piperidin-3-yl)amino)pyrimidin-4-yl)pyridin-2-yl)oxy)naphthalen-1-yl)cyclopropane-1-carboxamide] | 174 nM
